Like-named read-outs stand apart in the source and are kept apart here. *1 amine or outer side, *2 acyl side, *3 side chain or, on linkers, in order; H or OH if unused. Where a SMILES comes first, the peptide text is derived from it. Bridges are numbered along the chain shown (N, C = ends). [ ]: non-standard residue; d: D form. The star is where a group is joined. ξ: configuration not given here. X3 = O=C(O)CN1CCN(CC(=O)O)CCN(CC(=O)NCCCOCCOCCOCCCN*)CCN(CC(=O)O)CC1; dE(AGLU) = D-glutamic acid bearing 1-amino-1-deoxy-D-glucitol; Pro(trans-4-NH2) = O=C([C@@H]1C[C@@H](N[*:3])CN1[*:1])[*:2]; DOTA = O=C(O)CN1CCN(CC(=O)O)CCN(CC(=O)*)CCN(CC(=O)O)CC1; Trp(5-Cl) = N[C@@H](Cc1c[nH]c2ccc(Cl)cc12)C(=O)O; Pyridine(2,6-diCH2) = c1cc(C[*:1])nc(C[*:2])c1; APAc = 4-amino-1-carboxymethylpiperidine; mXylylene = c1cc(C[*:1])cc(C[*:2])c1; Glutaryl = O=C(CCCC(=O)[*:2])[*:1]; AGLU = 1-amino-1-deoxy-D-glucitol; X7 = c1cc(CSCCN[*:2])cc(C[*:1])c1; Suc = O=C(CCC(=O)[*:2])[*:1]; Api = NC1(C(=O)O)CCNCC1; Aib = CC(C)(N)C(=O)O; ξP = O=C(O)C1CCCN1

Data set [1] concerns the target T1, GIPR (CHO-K1-hGIPR cells) (Homo sapiens, UniProt P48546).
T1 construct: host or cells: CHO-K1
T1 sequence (P48546 22-466): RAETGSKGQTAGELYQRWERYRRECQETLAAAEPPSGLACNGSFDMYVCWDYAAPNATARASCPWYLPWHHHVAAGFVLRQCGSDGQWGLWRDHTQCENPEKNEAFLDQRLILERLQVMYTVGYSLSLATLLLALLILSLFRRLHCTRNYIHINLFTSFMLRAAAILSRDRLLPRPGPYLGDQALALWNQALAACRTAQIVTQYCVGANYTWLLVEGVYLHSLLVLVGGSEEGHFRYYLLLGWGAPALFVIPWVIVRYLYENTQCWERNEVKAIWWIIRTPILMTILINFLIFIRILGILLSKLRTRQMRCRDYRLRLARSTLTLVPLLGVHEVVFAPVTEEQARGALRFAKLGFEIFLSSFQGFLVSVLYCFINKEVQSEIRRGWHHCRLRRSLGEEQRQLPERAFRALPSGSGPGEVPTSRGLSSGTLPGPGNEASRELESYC
The data set can be described thus: FACS binding assay. The conditions noted are these: read-out: pIC50 Category (converted). The method in brief:
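CHO-K1 cells expressing human GIPR, washed in PBS/1% FCS, then stained with 1 μg/mL APC-streptavidin for 30 min on ice.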

The nature of data set [2]: Plasma stability assay, mouse plasma. Type of data set: in vitro ADME. Conditions: 37° C., % intact compound remaining after 4 h or 24 h. As for the experimental part:
In order to determine the stability of selected compounds of the invention in human and mouse plasma, a plasma stability assay was carried out. Such plasma stability assay measures degradation of compounds of the present invention in blood plasma. This is an important characteristic of a compound as compounds, with the exception of pro-drugs, which rapidly degrade in plasma, generally show poor in vivo efficacy. […] The stability is sufficient for the diagnostic, therapeutic and theragnostic use of these compounds according to the present invention.
The plasma stability samples were prepared by spiking 50 μL plasma aliquots (all K2EDTA) with 1 μL of a 0.5 mM compound stock solution in DMS0. After vortexing the samples were incubated in a Thermomixer at 37° C. for 0, 4 and 24 hours. After incubation the samples were stored on ice until further treatment. All samples were prepared in duplicates.
A suitable internal standard was added to each sample (1 μL of a 0.5 mM stock solution in DMSO). Protein precipitation was performed by addition of 250 μL of acetonitrile containing 1% trifluoroacetic acid. After incubation at room temperature for 30 min the precipitate was separated by centrifugation and 150 μL of the supernatant was diluted with 150 μL of 1% aqueous formic acid.
Additionally, recovery was determined by spiking a pure plasma sample that only contained the internal standard after treatment with a certain amount of the compound.
Carry-over was evaluated by analysis of a blank sample (20% acetonitrile) after the highest calibration sample.

Data set [3] deals with biotinylated extracellular domain of the human GIP receptor (bioGIPR) (human) (UniProt P48546). In words: SPR single cycle kinetics, bioGIPR captured on chip; category A: pKD >9.0.
Data set [4] shares this target. The data set can be described thus: SPR single cycle kinetics, bioGIPR captured on chip; category A: t1/2 >15 min.
The target in data set [5] is human Gastric Inhibitory Peptide Receptor (human) (UniProt P48546). The data set can be described thus: FACS competition with GIP-057 on CHO-K1-hGIPR cells; pIC50 category B: 7.1-8.0.
Setting [6] is: competition with 20 nM GIP-057, 4° C., 1 hour.

Take `CC[C@H](C)[C@@H]1NC(=O)[C@H](CC(C)C)NC(=O)C(C)(C)NC(=O)[C@@H](NC(=O)[C@@H](CC(C)C)NC(=O)[C@H](CCC(=O)O)NC(=O)[C@@H]2CCCN2C(=O)[C@H](Cc2c[nH]c3ccccc23)NC(=O)[C@H](Cc2c[nH]c3ccccc23)NC(=O)[C@H](CC(=O)O)NC(=O)CCC(=O)NCCCOCCOCCOCCCNC(=O)CN2CCN(CC(=O)O)CCN(CC(=O)O)CCN(CC(=O)O)CC2)CSCc2cccc(c2)CSC[C@@H](C(N)=O)NC1=O` [GIP-128, DOTA-Ttds-Asp-Trp-Trp-Pro-Glu-leu-[Cys(3MeBn)-Aib-Leu-Ile-Cys]-NH2] ({X3-Suc}-DWWPE[dL]C[Aib]LIC-NH2; linker 7-11 via mXylylene): the IC50 in data set [1] (setting [6]) is 10 to 79.4 nM. For the same molecule, the “Mouse plasma stability category” value in data set [2] was “B (>80% intact after 4 hours)”. On the same counts, the results for `CC[C@H](C)[C@@H]1NC(=O)[C@H](CC(C)C)NC(=O)C(C)(C)NC(=O)[C@@H](NC(=O)[C@@H](CC(C)C)NC(=O)[C@H](CCC(=O)O)NC(=O)[C@@H]2CCCN2C(=O)[C@H](Cc2c[nH]c3ccccc23)NC(=O)[C@H](Cc2c[nH]c3ccccc23)NC(=O)[C@H](CC(=O)O)NC(=O)CCC(=O)NCCCOCCOCCOCCCNC(=O)CN2CCN(CC(=O)O)CCN(CC(=O)O)CCN(CC(=O)O)CC2)CSCc2cccc(c2)CSCCNC1=O` [GIP-129, DOTA-Ttds-Asp-Trp-Trp-Pro-Glu-leu-[Cys(3MeBn)-Aib-Leu-Ile-AET]] ({X3-Suc}-DWWPE[dL]C[Aib]LI; linker 7-C via X7) are 10 to 79.4 nM and “B (>80% intact after 4 hours)”. With `CC[C@H](C)[C@@H]1NC(=O)[C@H](CC(C)C)NC(=O)C(C)(C)NC(=O)[C@@H](NC(=O)[C@H](CC(C)C)NC(=O)[C@@H](CCC(=O)O)NC(=O)C2CCCN2C(=O)[C@H](Cc2c[nH]c3ccccc23)NC(=O)[C@H](Cc2c[nH]c3ccccc23)NC(=O)[C@H](CC(=O)O)NC(=O)CCC(=O)NCCCOCCOCCOCCCNC(=O)CN2CCN(CC(=O)O)CCN(CC(=O)O)CCN(CC(=O)O)CC2)CSCc2cccc(c2)CSC[C@@H](C(N)=O)NC1=O` (stereo partly drawn) [GIP-270, DOTA-Ttds-Asp-Trp-Trp-Pro-glu-Leu-[Cys(3MeBn)-Aib-Leu-Ile-Cys]-NH2] ({X3-Suc}-DWW[ξP][dE]LC[Aib]LIC-NH2; linker 7-11 via mXylylene), the IC50 in data set [1] (competition with 20 nM GIP-057, 4° C. for 1 hour) was 100 to 794 nM. For the same molecule, the “Mouse plasma stability category” value in data set [2] is on record as “B (>80% intact after 4 hours)”.

In data set [3], “AGLU-Glutar-APAc-Asp-Trp-5Clw-Tap(AGLU-Glutar)-Glu-leu-[Cys(2Lut)-Apc(DOTA-glu(AGLU))-Leu-Ile-Cys]-APAc-glu(AGLU)-NH2 (peptide)” came in with a pKD of over 9 pkd. For the same molecule, in data set [4], the t1/2 was over 15 min. The pIC50 in data set [5] was in the range of 7.1 to 8 pic50.

Consider {AGLU-Glutaryl}-DW[Trp(5-Cl)][Pro(trans-4-NH2)]E[dL][dC][Api](DOTA)LI[dC]-{APAc-dE(AGLU)-NH2} (linker 7-11 via Pyridine(2,6-diCH2)) [AGLU-Glutar-Asp-Trp-5Clw-Tap-Glu-leu-[cys(2Lut)-Apc(DOTA)-Leu-Ile-cys]-APAc-glu(AGLU)-NH2], for which the pIC50 in data set [5] is 7.1 to 8 pic50.

Consider {AGLU-Glutaryl}-DW[Trp(5-Cl)][Pro(trans-4-NH2)]E[dL][dC][Api](DOTA)LIC-{APAc-dE(AGLU)-NH2} (linker 7-11 via Pyridine(2,6-diCH2)) [AGLU-Glutar-Asp-Trp-5Clw-Tap-Glu-leu-[cys(2Lut)-Apc(DOTA)-Leu-Ile-Cys]-APAc-glu(AGLU)-NH2], for which the pIC50 in data set [5] lay within 7.1 to 8 pic50.
